Assay results from patent publication US20230149355A1, “COMPOSITIONS AND METHODS FOR MODULATING TRP CHANNEL ACTIVITY” (priority 2020, published 2023).

Tests used:
zebrafish EECs = test: In vivo EEC activity, Tg(neurod1:CaMPARI) zebrafish
Source text: CaMPARI undergoes permanent green-to-red photoconversion (PC) under 405 nm light when calcium is present. This permanent conversion records the calcium activity for all areas illuminated by PC-light. Red fluorescence intensity correlates with calcium activity during photoconversion (Fosque et al., 2015). In the Tg(neurod1:CaMPARI) zebrafish line, the CaMPARI (calcium-modulated photoactivatable ratiometric integrator) transgene is expressed under control of the −5 kb promoter cloned from the zebrafish neurod1 locus. CaMPARI mRNA is transcribed and the CaMPARI protein is expressed in cells that are able to activate the neurod1 promoter. There are multiple cell types in the zebrafish body that are sufficient to activate the neurod1 promoter, including all EECs in the intestine (Ye et al., 2019). CaMPARI protein is a calcium indicator protein that binds calcium and converts from green fluorescence to red fluorescence in the presence of UV light. This protein is engineered and described in detail in a previous publication (Fosque et al., 2015). This transgenic model was used to measure the level of intracellular calcium in EECs. […]

human ileum = test: Amperometric measurement of 5-HT secretion, human small intestine; details: 50 μM HC030031
Source text: (§1) These experiments using C57BL/6J mice were approved by the Flinders University Animal Welfare Committee (number 965-19) and human ileum tissue was collected from resected small and large intestine from patients that gave written informed consent under the approval of the Southern Adelaide Clinical Human Research Ethics Committee (number 50.07) as previous (Sun et al., 2019a). Mice were euthanized at 8 to 12 weeks by isoflurane overdose followed by cervical dislocation. The duodenum was removed and placed in Krebs solution oxygenated with 95% O2, 5% CO2. A midline incision was made along the duodenum to create a flat sheet, the section was pinned with the mucosal side up in an organ bath lined with Sylgard and containing oxygenated Krebs solution. Serotonin release was measured using amperometry. A carbon-fibre electrode (5-μm diameter, ProCFE; Dagan Corporation, Minneapolis, Minn.), was lowered above the mucosa and 400 mV potential was applied to the electrode causing oxidation of serotonin (Zelkas et al., 2015). […] The change in amplitude due to serotonin oxidation was recorded using an EPC-10 amplifier and Pulse software (HEKA Electronic, Lambrecht/Pfalz, Germany), and samples at 10 kHz and low-pass filtered at 1 kHz. Data was assessed as peak current during each treatment. Data was analyzed comparing all groups using one-way ANOVA with Tukey's post-hoc test. […]

mouse duodenum = test: Amperometric measurement of 5-HT secretion, mouse small intestine; details: 50 μM HC030031
Source text: as §1

vagal sensory neurons [1] = test: pERK immunofluorescence of vagal ganglia after microgavage; type: in vivo, zebrafish
Protocol: To quantify vagal activity by pERK staining, published protocol with slight modification (Randlett et al., 2015) was used. Zebrafish larvae were quickly collected by funneling through a 0.75 mm cell strainer and dropped into a 5 mL petri dish containing ice cold fix buffer (2.5% formalin+0.25% Triton 100). Larvae were fixed overnight at 4° C., then washed 3 times in PT (PBS+0.3% Triton 100), treated with 150 mM Tris-HCl (PH=9) for 15 mins at 70° C., washed with PT and digested with 0.05% trypsin-EDTA on ice for 45 mins. Following digestion, samples were then washed with PT and transferred into block solution [PT+1% bovine serum albumin (BSA, Fisher)+2% normal goat serum (NGS, Sigma)+1% dimethyl sulfoxide (DMSO)]. The primary antibodies [pERK (Cell signaling); tERK (Cell signaling); GFP (Aves Lab)] were diluted in block solution (1:150 for pERK; 1:150 for tERK and 1:500 for GFP) and samples were incubated in 100 μl of primary antibody overnight at 4° C. Following primary antibody incubation, samples were then washed with PT and incubated with secondary antibody overnight at 4° C. Samples were then washed with PBS, mounted in 1% LMA and imaged using a Zeiss 780 upright confocal microscope.
For delivering bacterial or chemicals specifically to the intestine, the established microgavage technique (Cocchiaro and Rawls, 2013) was adopted. […]

zebrafish EECs (Trpa1) = test: In vivo EEC calcium, Tg(neurod1:Gcamp6f) zebrafish; details: trpa1b-dependent
Protocol: To record in vivo EEC activity using the Tg(neurod1:Gcamp6f) system, a published protocol with slight modification (Ye et al., 2019) was used. In brief, unanesthetized zebrafish larvae were gently mounted in 3% methylcellulose. Excess water was removed and zebrafish larvae were gently positioned with right side up. Zebrafish were then moved onto an upright Leica M205 FA fluorescence stereomicroscope equipped with a Leica DFC 365FX camera. The zebrafish larvae were allowed to recover for 2 mins before 100 μL of test agent was pipetted directly in front of the mouth region. Images were then recorded every 10 seconds. The data shown in FIG. 2O-R, depicting the EEC responses to E. tarda stimulation, were obtained by mounting unanesthetized zebrafish larvae in 1% low melting agarose. A window (5×5 mm) was cut to expose the head region of the zebrafish. 10 μL of E. tarda culture [˜10^9 Colony Forming Unit (CFU)] were delivered at the zebrafish mouth area. Images were recorded every 10 secs for 20 mins. Image processing and analysis were performed using FIJI software. Time-lapse fluorescence images were first aligned to correct for experimental drift using the plugin “align slices in stack.” Normalized correlation coefficient matching and bilinear interpolation methods for subpixel translation were used for aligning slices (Tseng et al., 2012). The plugin “rolling ball background subtraction” with the rolling ball radius=10 pixels was used to remove the large spatial variation of background intensities. The Gcamp6f fluorescence intensity in the intestinal region was then calculated for each time point. The ratio of maximum fluorescence (Fmax) and the initial fluorescence (F0) was used to measure EEC calcium responses.
For EEC Trpa1 activation using the Optovin platform, zebrafish larvae were treated with 10 μM Optovin overnight. Following Optovin treatment, unanesthetized zebrafish were mounted in 1% LMA and imaged under a 780 upright Zeiss confocal microscope using 20× water objective lenses. For all the experiments, the mid-intestine region was imaged (FIG. 10D). The intestinal epithelium was selected as the region of interest (ROI) (FIG. 10A). Serial images were obtained at 1 s/frame. A 405 nm pulse of light was applied to the ROI at 1 pulse/10 s. For some experiments (FIG. 7D-F, FIG. 10B-G), the images were obtained at 10 s/frame. When measuring Optovin effects on intestinal motility in ret−/−, sox10−/− or tph1b−/− zebrafish larvae, embryos were collected from heterozygous zebrafish. ret−/− zebrafish were identified by lack of ENS and deflated swim bladder (Knight et al., 2011), sox10−/− zebrafish were identified by lack of pigment (Rolig et al., 2017), and tph1b−/− zebrafish were identified by PCR-based genotyping (Tornini et al., 2017).
To determine whether Optovin-UV or ChR2 was sufficient to activate EECs, Tg(neurod1:Gcamp6f) zebrafish were used. […] The Gcamp6f signal was recorded with 488 nm laser intensity less than 0.5. The zebrafish intestinal motility is quantified through recorded image series of zebrafish intestine using the method similar as previously described (Ganz et al., 2018). […] When calculating the mean velocity, only the mean velocity magnitude was calculated, which therefore doesn't account for the movement direction. The MTrackJ FIJI plugin was used to quantify the mean velocity magnitude (Meijering et al., 2012).

vagal sensory neurons [2] = test: In vivo calcium imaging of vagal sensory ganglia after microgavage; set-up: species or system zebrafish; details: WT; enteric microgavage ~8 nl, AITC 100 mM, indole 1 mM, IAld 1 mM
Protocol: For delivering bacterial or chemicals specifically to the intestine, the established microgavage technique (Cocchiaro and Rawls, 2013) was adopted. Zebrafish were anesthetized with 1 mg/mL α-Bungarotoxin (α-BTX) and the gavage procedure was performed as previously described using microinjection station (Cocchiaro and Rawls, 2013). For bacteria gavage experiments, 1 ml of overnight bacterial culture was harvested, pelleted, washed with PBS and resuspended in 100 ul PBS.˜8 nl was then delivered into the zebrafish intestine using microgavage. The gavaged zebrafish was then transferred into egg water and mounted in 1% LMA for imaging. For chemical gavage experiments, ˜8 nl of AITC (100 mM), indole (1 mM) and IAld (1 mM) was gavaged into the intestine.
Tg(neurod1:Gcamp6f); Tg(neurod1:TagRFP) zebrafish were used to record vagal sensory ganglia calcium activity in vivo. Zebrafish were anesthetized with 1 mg/mL α-Bungarotoxin (α-BTX) and gavaged with chemical compounds or bacteria as described (Naumann et al., 2016). Zebrafish larvae were mounted in 1% LMA and imaged under a Zeiss 780 upright confocal microscope. Z-stack images of the entire vagal ganglia were collected as serial images at 10 mins/frame and processed in FIJI. Individual vagal sensory neurons were identified and the Gcamp6f to TagRFP fluorescence ratios of individual vagal sensory neurons were calculated.

CCCCCCCCCCCC(=O)O [laurate]
Percentage of activated EECs (high red:green CaMPARI ratio) (zebrafish EECs; linoleate, oleate, laurate 1.66 mM, butyrate 2 mM, glucose 500 mM, vs water): significantly increased

CC(C)c1ccc(NC(=O)Cn2cnc3c2c(=O)n(C)c(=O)n3C)cc1 [HC030031]
Effect on indole-induced 5-HT secretion, human small intestine (human ileum): blocked
Effect on indole-induced 5-HT secretion, mouse small intestine (mouse duodenum): blocked
Effect on E. tarda's ability to induce EEC activation (zebrafish EECs; WT fish, HC030031 280 μM, 2 hours before and during E. tarda stimulation): significantly inhibited

C=CCN=C=S [AITC, Allyl isothiocyanate]
Vagal activation (pERK+) in the absence of EECs (vagal sensory neurons [1]; EEC-ablated zebrafish): abrogated
Number of pERK+ vagal cells (vagal sensory neurons [1]; WT, microgavage, compared to PBS): increased
Zebrafish EEC activation (Gcamp6f fluorescence) (zebrafish EECs (Trpa1)): EEC activation
Gcamp6f fluorescence in a subset of vagal sensory neurons (vagal sensory neurons [2]): significantly increased
